This is an account of results in PMC9101728, “Isolation and HPLC Quantitative Determination of 5α-Reductase Inhibitors from Tectona grandis L.f. Leaf Extract” (Molecules, 2022).

Structures are written as SMILES. Values joined by “and” are separate entries in the source; they are usually repeats but may differ in a detail not shown here. Identical values can stand only once. Like-named read-outs stand apart in the source and are kept apart here.

Assay [1] has as its target T1, 5α-reductase (Homo sapiens, UniProt P18405).
T1 sequence (P18405 1-259): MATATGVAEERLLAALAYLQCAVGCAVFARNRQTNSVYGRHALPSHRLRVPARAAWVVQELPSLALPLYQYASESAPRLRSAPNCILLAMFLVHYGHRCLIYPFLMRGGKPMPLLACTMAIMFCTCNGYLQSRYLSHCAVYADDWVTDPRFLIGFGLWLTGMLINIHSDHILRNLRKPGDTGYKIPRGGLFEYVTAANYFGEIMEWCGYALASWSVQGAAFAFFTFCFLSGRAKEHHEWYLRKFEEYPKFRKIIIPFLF
The experiment in a line: Enzymatic 5α-reductase inhibition assay (conversion of testosterone to DHT, LC-MS), crude enzyme from LNCaP cells. It counts as biochemical. Also noted: adding 80 µL of homogenized crude enzyme (equivalent to 75 µg protein); host or cells: LNCaP cells, sonicated homogenate used as crude enzyme. The note with it: for IC50: isolated compounds, LNCaP cell crude enzyme, mean ± SD of triplicate, read-out: IC50 against 5α-reductase (converted); for 5α-reductase inhibitory activity (in words): qualitative statement. The procedure:
The steroid 5α-reductase inhibitory activity of samples on the conversion of testosterone to DHT was determined using LNCaP cell as a source of enzyme.
5α-reductase was prepared as a crude enzyme from the androgen-dependent LNCaP cells (ATCC® CRL-1740^TM) using the procedure as described by Fachrunniza et al., which was modified from Srivilai et al.. Briefly, the LNCaP cells were cultured in a 175 cm^2 culture flask at 37 °C under a 5% CO2 humidified atmosphere and cultured until reaching approximately 80% confluency. The medium was removed and the cells were rinsed with tris-HCl buffer solution, pH 7.4 (containing 10 mM Tris-HCl buffer; 50 mM KCl; 1 mM EDTA; 0.5 mM phenylmethanesulfonyl fluoride). The cells were then scraped off and centrifuged at 1900× g for 10 min. The cell pellets were collected and re-suspended in tris-HCl buffer solution pH 7.4 to a concentration of ≥9 × 10^7 cells/mL and the resultant cell pellets were kept in an ice bath and homogenized using a sonication probe. The total protein content in the homogenized crude enzyme was not less than 75 µg protein equivalent in this 5α-reductase inhibitory assay, which was measured using the Pierce bicinchoninic acid (BCA) protein assay (Pierce, Rockford, IL, USA).
The in vitro inhibitory activity of the samples against the conversion of testosterone to DHT by 5α-reductase was carried out according to the method described by Srivilai et al.. The DHT formation after the enzymatic reaction was determined using liquid chromatography mass spectrometry (LC-MS) to measure 5α-reductase activity. […] In the assay, the reaction was performed in U-shaped 96-deep-well plates covered by well-cap mats to create a solution that contained 10 µL of the tested sample dissolved in dimethyl sulfoxide (DMSO), 20 µL of testosterone (34.7 µM in propylene glycol and water), and 50 µL of β-nicotinamide adenine dinucleotide phosphate (NADPH, 1 mM in tris-HCl buffer pH 7.4). The enzymatic reaction was started by adding 80 µL of homogenized crude enzyme (equivalent to 75 µg protein), and the final volume was adjusted to 200 µL by adding 40 µL of tris-HCl buffer pH 7.4. The reaction was maintained in a water bath with a shaker at 37 °C for 60 min and then the reaction was stopped by adding 300 µL of hydroxylamine hydrochloride (HM) (10 mg/mL in 80% v/v ethanol). The solution was then incubated for another 60 min at 60 °C to completely derivatize all the DHT that was produced. After incubation, the solution was centrifuged at 1700× g for 10 min and the supernatant was collected for quantitated DHT production by LC-MS. Two control groups, C0 and C60, were prepared with all the solutions, including 10 µL of DMSO, but no test sample. Control group C0 was stopped (by adding HM) before the enzymatic incubation at 0 min, while the control group C60 continued with the enzymatic reaction and was stopped after 60 min of incubation. The DHT production was determined using LC-MS. The inhibition of tested sample was determined by measuring the area under the curve (AUC) of extracted ion chromatogram (EIC) of derivatized-DHT (m/z [M + H]^+, 306.2428) which was used to calculate the enzymatic reaction inhibition by the following Equation (1):(1) 5α-reductase inhibitory activity (%)= [1 −AUC of sample−AUC of C0/AUC of C60 −AUC of C0] ×100

Assay [2] concerns the target T1, 5α-reductase. The conditions noted are these: read-out: IC50 against 5α-reductase; positive controls; same assay system; cited from earlier work.

Regarding `CC1=C(CC/C(C)=C/C(=O)O)[C@@]2(C)CCCC(C)(C)[C@@H]2CC1` [Compound 1, (+)-eperua-8,13-dien-15-oic acid], in assay [1], the IC50 is 14.2 µM and the “5α-reductase inhibitory activity (in words)” value is “potent 5α-reductase inhibitory activity”.

Regarding `CC1=CC[C@H]2C(C)(C)CCC[C@]2(C)[C@H]1CC/C(C)=C/C(=O)O` [Compound 2, (+)-eperua-7,13-dien-15-oic acid], in assay [1], the half-maximal inhibitory concentration (IC50) was 14.6 µM and the “5α-reductase inhibitory activity (in words)” value is given as “potent 5α-reductase inhibitory activity”. For `C=C(C)[C@@H]1CC[C@]2(C)CC[C@]3(C)[C@H](CC[C@@H]4[C@@]5(C)CC[C@H](O)C(C)(C)[C@@H]5CC[C@]43C)[C@@H]12` [Compound 3, lupeol] the same measures were above 400 µM and “weak inhibitory activity”.

On to `CC(C)(C)NC(=O)[C@H]1CC[C@H]2[C@@H]3CC[C@H]4NC(=O)C=C[C@]4(C)[C@H]3CC[C@]12C` [Finasteride], for which the IC50 in assay [2] is 0.752 µM and 0.73 µM.
